In article PMC9168620, “Genetic validation of Aspergillus fumigatus phosphoglucomutase as a viable therapeutic target in invasive aspergillosis” (The Journal of Biological Chemistry, 2022):
Several values for one entry are separate records, joined by “and”; a condition that tells them apart may be missing. Equal values may be shown once.

Target: T1, AfPGM (Aspergillus fumigatus, UniProt Q4WY53)
T1 construct: Full length AfPGM; 6His-GST (N, cleaved yes); made in house; host or cells: E. coli BL21 (DE3) pLysS
T1 sequence (Q4WY53 whole entry): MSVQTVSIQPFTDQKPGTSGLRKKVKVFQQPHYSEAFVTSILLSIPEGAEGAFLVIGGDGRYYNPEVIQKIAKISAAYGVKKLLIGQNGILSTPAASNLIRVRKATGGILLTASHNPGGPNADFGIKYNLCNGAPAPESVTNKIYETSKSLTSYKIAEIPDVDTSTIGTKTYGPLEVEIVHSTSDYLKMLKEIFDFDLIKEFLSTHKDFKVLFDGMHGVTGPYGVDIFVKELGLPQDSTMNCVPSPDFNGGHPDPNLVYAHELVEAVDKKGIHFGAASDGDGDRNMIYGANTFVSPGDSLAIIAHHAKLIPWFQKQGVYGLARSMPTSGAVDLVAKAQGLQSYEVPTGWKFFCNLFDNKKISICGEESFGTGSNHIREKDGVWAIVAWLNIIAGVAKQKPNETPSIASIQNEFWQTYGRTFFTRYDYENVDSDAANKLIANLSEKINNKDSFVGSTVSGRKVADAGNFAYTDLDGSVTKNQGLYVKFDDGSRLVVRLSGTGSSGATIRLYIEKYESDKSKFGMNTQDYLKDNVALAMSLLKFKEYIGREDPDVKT
Assay: biochemical
Settings: 15-min preincubation (Fig. S11C, D)
Description: (§1) The reaction mixture contained MOPS–NaOH (pH 7.4; 50 mM), MgSO4 (1.5 mM), NADP^+ (1 mM), G6PDH (0.01 U) from L. mesenteroides, Glc-1P (500 μM), Glc-1,6-2P (50 μM), and enzyme (5 nM). The reaction was carried out at 25 °C for 6 min in a total volume of 100 μl. Formation of NADPH was detected in real-time (every 1.5 min), measuring fluorescence signal (excitation at 360 nm; emission at 460 nm). To measure the inhibitory activity, compounds with different concentrations (3% (v/v) DMSO) were added to the reaction system. IC50 values were calculated using the product (NADPH) concentration at 6 min with 500 μM Glc-1P.
(§2) Figure S11: Representative enzyme activity assays for PGMs. Error bars represent standard deviation of three determinations. Panel A and B show the time course of PGMs and PGM mutants in which sugar recognition glutamates are mutated to glutamine. […] Values in parentheses indicate the time at which DTT (1 mM) was added.

| SMILES | Shift in IC50 against AfPGM over preincubation |
| --- | --- |
| O=C(OCc1ccccc1)c1ccc(-n2sccc2=O)cc1 [ISFP10, benzyl 4-(3-oxoisothiazol-2(3H)-yl)benzoate] | no shift |

Same assay, conditions: WT AfPGM 5 nM, no preincubation, 500 μM Glc-1P

| IC50 AfPGM | SMILES | IC50 |
| --- | --- | --- |
|  | O=c1ccsn1-c1ccccc1F [ISFP16, 2-(2-fluorophenyl)isothiazol-3(2H)-one] | 21 µM |
|  | CCOC(=O)c1cc2cc(-n3sccc3=O)ccc2o1 [ISFP15, ethyl 5-(3-oxoisothiazol-2(3H)-yl)benzofuran-2-carboxylate] | 2.3 µM |
|  | O=c1ccsn1-c1cccc([N+](=O)[O-])c1 [ISFP12, 2-(3-nitrophenyl)isothiazol-3(2H)-one] | 5.7 µM |
| no inhibition | O=c1ccsn1CCc1ccccc1 [ISFP22, 2-phenethylisothiazol-3(2H)-one] |  |
|  | CC(C)(C)OC(=O)c1ccc(-n2sccc2=O)cc1 [ISFP8, tert-butyl 4-(3-oxoisothiazol-2(3H)-yl)benzoate] | 3.1 µM |
|  | O=C(OCc1ccccc1)c1ccc(-n2sccc2=O)cc1 [ISFP10, benzyl 4-(3-oxoisothiazol-2(3H)-yl)benzoate] | 2 µM |
|  | Cc1cc(=O)n(-c2cccc(Cl)c2)s1 [ISFP30, 2-(3-chlorophenyl)-5-methylisothiazol-3(2H)-one] | 5.2 µM |
|  | O=C(c1ccc(-n2sccc2=O)cc1)N1CCOCC1 [ISFP18, 2-(4-(morpholine-4-carbonyl)phenyl)isothiazol-3(2H)-one] | 19 µM |
|  | O=c1ccsn1-c1cccc2ccccc12 [ISFP17, 2-(naphthalen-1-yl)isothiazol-3(2H)-one] | 3.3 µM |
|  | O=c1ccsn1-c1cccc(Cl)c1 [ISFP13, 2-(3-chlorophenyl)isothiazol-3(2H)-one] | 5.8 µM |
|  | O=c1ccsn1-c1c(F)cccc1F [ISFP20, 2-(2,6-difluorophenyl)isothiazol-3(2H)-one] | 19 µM |
| no inhibition | CCOCCn1sccc1=O [ISFP25, 2-(2-ethoxyethyl)isothiazol-3(2H)-one] |  |
| no inhibition | O=c1ccsn1Cc1ccccc1 [ISFP26, 2-benzylisothiazol-3(2H)-one] |  |
|  | O=c1ccsn1-c1cc(Cl)cc(Cl)c1F [ISFP5, 2-(3,5-dichloro-2-fluorophenyl)isothiazol-3(2H)-one] | 1 µM and 0.8 µM |
|  | N#Cc1cccc(-n2sccc2=O)c1 [ISFP14, 3-(3-oxoisothiazol-2(3H)-yl)benzonitrile] | 5.7 µM |
|  | CC(=O)OCc1cccc(-n2sccc2=O)c1 [ISFP19, 3-(3-oxoisothiazol-2(3H)-yl)benzyl acetate] | 36 µM |
| no inhibition | CCOC(=O)Cn1sccc1=O [ISFP23, ethyl 2-(3-oxoisothiazol-2(3H)-yl)acetate] |  |
|  | CC(C)OC(=O)c1ccc(-n2sccc2=O)cc1 [ISFP11, isopropyl 4-(3-oxoisothiazol-2(3H)-yl)benzoate] | 3.1 µM |
| no inhibition | CCOC(=O)CCn1sccc1=O [ISFP24, ethyl 3-(3-oxoisothiazol-2(3H)-yl)propanoate] |  |
|  | O=c1ccsn1-c1cccc(CO)c1 [ISFP21, 2-(3-(hydroxymethyl)phenyl)isothiazol-3(2H)-one] | 23 µM |

| SMILES | IC50 AfPGM | IC50 |
| --- | --- | --- |
| Cc1csn(-c2cccc(Cl)c2)c1=O [ISFP28, 2-(3-chlorophenyl)-4-methylisothiazol-3(2H)-one] | no inhibition |  |
| O=c1cc(-c2ccccc2)sn1-c1cccc(Cl)c1 [ISFP27, 2-(3-chlorophenyl)-5-phenylisothiazol-3(2H)-one] | no inhibition |  |

Target: T2, AfPGMC353∗ (Aspergillus fumigatus, UniProt Q4WY53, C131S/C242S/C364S)
T2 construct: Full length AfPGM; 6His-GST (N, cleaved yes); made in house; host or cells: E. coli BL21 (DE3) pLysS
T2 sequence (Q4WY53 whole entry C131S/C242S/C364S): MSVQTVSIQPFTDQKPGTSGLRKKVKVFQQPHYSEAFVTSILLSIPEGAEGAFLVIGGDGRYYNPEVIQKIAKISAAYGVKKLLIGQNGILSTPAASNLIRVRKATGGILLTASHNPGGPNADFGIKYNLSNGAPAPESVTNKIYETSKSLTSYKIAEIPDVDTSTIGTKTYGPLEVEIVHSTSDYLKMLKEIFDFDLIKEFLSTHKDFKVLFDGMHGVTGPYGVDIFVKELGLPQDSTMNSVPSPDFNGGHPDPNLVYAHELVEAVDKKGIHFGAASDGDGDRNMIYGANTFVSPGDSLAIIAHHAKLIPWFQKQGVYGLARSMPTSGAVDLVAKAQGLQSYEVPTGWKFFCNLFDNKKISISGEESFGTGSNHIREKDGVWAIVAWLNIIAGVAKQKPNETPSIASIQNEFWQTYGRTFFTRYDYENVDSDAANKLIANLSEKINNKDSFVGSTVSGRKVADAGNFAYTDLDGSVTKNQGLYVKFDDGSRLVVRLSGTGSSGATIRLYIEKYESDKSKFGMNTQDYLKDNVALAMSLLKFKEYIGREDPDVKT
Assay: G6PDH coupled assay for PGM, AfPGMC353∗ variant (C353 the sole cysteine)
Format: biochemical
Settings: AfPGMC353∗ (all other cysteines mutated to serine) 5 nM, no preincubation
Description: as §1

| SMILES | IC50 AfPGMC353 |
| --- | --- |
| Cc1cc(=O)n(-c2cccc(Cl)c2)s1 [ISFP30, 2-(3-chlorophenyl)-5-methylisothiazol-3(2H)-one] | no inhibition |

Same assay, conditions: IC50 AfPGMC353, AfPGMC353∗ (all other cysteines mutated to serine) 5 nM, no preincubation

| SMILES | IC50 |
| --- | --- |
| O=c1ccsn1-c1ccccc1F [ISFP16, 2-(2-fluorophenyl)isothiazol-3(2H)-one] | 23 µM |
| CCOC(=O)c1cc2cc(-n3sccc3=O)ccc2o1 [ISFP15, ethyl 5-(3-oxoisothiazol-2(3H)-yl)benzofuran-2-carboxylate] | 15 µM |
| O=c1ccsn1-c1cccc([N+](=O)[O-])c1 [ISFP12, 2-(3-nitrophenyl)isothiazol-3(2H)-one] | 9.5 µM |
| CC(C)(C)OC(=O)c1ccc(-n2sccc2=O)cc1 [ISFP8, tert-butyl 4-(3-oxoisothiazol-2(3H)-yl)benzoate] | 6.7 µM |
| O=C(OCc1ccccc1)c1ccc(-n2sccc2=O)cc1 [ISFP10, benzyl 4-(3-oxoisothiazol-2(3H)-yl)benzoate] | 4 µM and 3.6 µM |
| O=C(c1ccc(-n2sccc2=O)cc1)N1CCOCC1 [ISFP18, 2-(4-(morpholine-4-carbonyl)phenyl)isothiazol-3(2H)-one] | 23 µM |
| O=c1ccsn1-c1cccc2ccccc12 [ISFP17, 2-(naphthalen-1-yl)isothiazol-3(2H)-one] | 16 µM |
| O=c1ccsn1-c1cccc(Cl)c1 [ISFP13, 2-(3-chlorophenyl)isothiazol-3(2H)-one] | 12.2 µM |
| O=c1ccsn1-c1c(F)cccc1F [ISFP20, 2-(2,6-difluorophenyl)isothiazol-3(2H)-one] | 14 µM |
| O=c1ccsn1-c1cc(Cl)cc(Cl)c1F [ISFP5, 2-(3,5-dichloro-2-fluorophenyl)isothiazol-3(2H)-one] | 8 µM and 7.8 µM |
| N#Cc1cccc(-n2sccc2=O)c1 [ISFP14, 3-(3-oxoisothiazol-2(3H)-yl)benzonitrile] | 9.5 µM |
| CC(=O)OCc1cccc(-n2sccc2=O)c1 [ISFP19, 3-(3-oxoisothiazol-2(3H)-yl)benzyl acetate] | 115 µM |
| CC(C)OC(=O)c1ccc(-n2sccc2=O)cc1 [ISFP11, isopropyl 4-(3-oxoisothiazol-2(3H)-yl)benzoate] | 6 µM |
| O=c1ccsn1-c1cccc(CO)c1 [ISFP21, 2-(3-(hydroxymethyl)phenyl)isothiazol-3(2H)-one] | 25 µM |

Target: T3, HsPGM (Homo sapiens, UniProt P36871)
T3 construct: Full length HsPGM; 6His-GST (N, cleaved yes); made in house; host or cells: E. coli BL21 (DE3) pLysS (same protocol as AfPGM)
T3 sequence (P36871 1-562): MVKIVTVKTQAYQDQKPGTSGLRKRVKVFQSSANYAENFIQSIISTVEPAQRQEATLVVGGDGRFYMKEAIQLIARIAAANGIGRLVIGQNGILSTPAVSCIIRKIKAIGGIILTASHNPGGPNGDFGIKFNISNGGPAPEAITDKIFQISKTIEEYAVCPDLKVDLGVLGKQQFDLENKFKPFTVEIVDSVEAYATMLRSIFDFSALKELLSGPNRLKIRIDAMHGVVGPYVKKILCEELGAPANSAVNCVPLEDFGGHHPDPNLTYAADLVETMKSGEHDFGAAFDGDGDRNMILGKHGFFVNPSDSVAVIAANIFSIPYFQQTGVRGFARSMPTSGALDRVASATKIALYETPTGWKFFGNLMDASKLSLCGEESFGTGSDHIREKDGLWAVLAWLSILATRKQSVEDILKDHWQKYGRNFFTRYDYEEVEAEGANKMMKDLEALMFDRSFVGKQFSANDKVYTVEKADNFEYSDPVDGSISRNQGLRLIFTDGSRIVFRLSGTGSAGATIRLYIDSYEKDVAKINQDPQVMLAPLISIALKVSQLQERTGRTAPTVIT
Assay: G6PDH coupled assay for PGM, HsPGM
Format: biochemical
Settings: HsPGM 5 nM, no preincubation; > values: highest concentration at which the compound can solubilize
Description: as §1, §2

| SMILES | IC50 HsPGM |
| --- | --- |
| Cc1cc(=O)n(-c2cccc(Cl)c2)s1 [ISFP30, 2-(3-chlorophenyl)-5-methylisothiazol-3(2H)-one] | no inhibition |

Same assay, conditions: HsPGM 5 nM, no preincubation; > values: highest concentration at which the compound can solubilize; read-out: IC50 HsPGM

| SMILES | IC50 |
| --- | --- |
| O=c1ccsn1-c1ccccc1F [ISFP16, 2-(2-fluorophenyl)isothiazol-3(2H)-one] | > 400 µM |
| CCOC(=O)c1cc2cc(-n3sccc3=O)ccc2o1 [ISFP15, ethyl 5-(3-oxoisothiazol-2(3H)-yl)benzofuran-2-carboxylate] | > 100 µM |
| O=c1ccsn1-c1cccc([N+](=O)[O-])c1 [ISFP12, 2-(3-nitrophenyl)isothiazol-3(2H)-one] | > 100 µM |
| CC(C)(C)OC(=O)c1ccc(-n2sccc2=O)cc1 [ISFP8, tert-butyl 4-(3-oxoisothiazol-2(3H)-yl)benzoate] | > 100 µM |
| O=C(OCc1ccccc1)c1ccc(-n2sccc2=O)cc1 [ISFP10, benzyl 4-(3-oxoisothiazol-2(3H)-yl)benzoate] | > 100 µM |
| O=C(c1ccc(-n2sccc2=O)cc1)N1CCOCC1 [ISFP18, 2-(4-(morpholine-4-carbonyl)phenyl)isothiazol-3(2H)-one] | > 100 µM |
| O=c1ccsn1-c1cccc2ccccc12 [ISFP17, 2-(naphthalen-1-yl)isothiazol-3(2H)-one] | > 100 µM |
| O=c1ccsn1-c1cccc(Cl)c1 [ISFP13, 2-(3-chlorophenyl)isothiazol-3(2H)-one] | 100 µM |
| O=c1ccsn1-c1c(F)cccc1F [ISFP20, 2-(2,6-difluorophenyl)isothiazol-3(2H)-one] | 86 µM |
| O=c1ccsn1-c1cc(Cl)cc(Cl)c1F [ISFP5, 2-(3,5-dichloro-2-fluorophenyl)isothiazol-3(2H)-one] | 10 ± 1 µM |
| N#Cc1cccc(-n2sccc2=O)c1 [ISFP14, 3-(3-oxoisothiazol-2(3H)-yl)benzonitrile] | > 100 µM |
| CC(=O)OCc1cccc(-n2sccc2=O)c1 [ISFP19, 3-(3-oxoisothiazol-2(3H)-yl)benzyl acetate] | > 400 µM |
| CC(C)OC(=O)c1ccc(-n2sccc2=O)cc1 [ISFP11, isopropyl 4-(3-oxoisothiazol-2(3H)-yl)benzoate] | > 100 µM |
| O=c1ccsn1-c1cccc(CO)c1 [ISFP21, 2-(3-(hydroxymethyl)phenyl)isothiazol-3(2H)-one] | > 400 µM |

Same assay, conditions: enzyme preincubated with compound for 15 min (Fig. S11E, F); read-out: IC50 HsPGM after preincubation

| SMILES | IC50 |
| --- | --- |
| O=C(OCc1ccccc1)c1ccc(-n2sccc2=O)cc1 [ISFP10, benzyl 4-(3-oxoisothiazol-2(3H)-yl)benzoate] | 6 µM |
